Data taken from a melting point compilation (Tetko et al.; mined from patent text by program, amines drawn as free bases though some values may be those of a salt).
Residues, ends and D or L forms follow the SMILES beside them. *: point of attachment. Boc = CC(C)(C)OC(=O)*; NHNH2 = NN*

`CC(=O)c1c(-c2ccc(Cl)cc2)c(-c2ccc(Cl)cc2)nn(CCO)c1=O` gave a melting point of 191 to 193 °C. `COc1ccc2c(c1)CCc1cc(=O)[nH]nc1-2` gave a melting point of 246 to 248 °C. With `N#CCOc1ccc2cc(-c3csc(-c4ccccc4)n3)ccc2c1Br` the melting point was 157 to 160 °C. With `C=CCc1c(OC)c(C)c2c(c1OC(C)=O)C(=O)OC2` the melting point was 101 to 102 °C. Work on `O=C(c1ccc(F)cc1)C1(n2cncn2)CC1` yielded a melting point of 73 to 75 °C. `COc1ccc(CN2CCC(c3cn(Cc4ccc(Cl)s4)c4cnccc34)CC2)cc1C(=O)O` showed a melting point of 125 to 127 °C. `CN(C(=O)OC(C)(C)C)c1sc(-c2cccnc2)nc1Cl` gave a melting point of 119 to 122 °C. `CCCCCCCCCCCCCCCC1Cc2ccc(C(=O)O)cc2N1` (racemic) gave a melting point of 119 to 122 °C. `CC1=C(C(=O)N(C)Cc2ccc(Cl)cc2)SC2=NC(C)(C)CN21` showed a melting point of 139 °C. For `COC(=O)CCc1cc(C(CC(C)C)NC(=O)Cc2ccc(NC(=O)Nc3ccccc3C)cc2)no1` (stereo not drawn), the melting point was 153 to 154 °C. For `Cc1ccc2[nH]c(S(=O)(=O)CC(F)(F)F)nc2c1`, the melting point was 160 to 161 °C. In the case of `Oc1cccc(C2CCCN(CCCc3ccccc3)C2)c1` (stereo not drawn), the melting point is reported as 119 to 120 °C. In the case of `O=C1CCC(N2C(=O)c3cccc(CNC(=O)Nc4ccccn4)c3C2=O)C(=O)N1` (stereo not drawn), the melting point is reported as over 260 °C. With `COC(=O)C1=C(C)NC(=O)N(C(=O)Oc2ccc([N+](=O)[O-])cc2)C1c1ccc(F)c(F)c1` (stereo not drawn) the melting point was 185 to 186 °C. With `CN(C)C=C1C(=O)N(C)C(=O)N1c1cccc(C(F)(F)F)c1` the melting point was 103 to 104 °C. `CCOC(=O)CNc1ccc2ccccc2c1` gave a melting point of 83 to 84 °C. `CNC(=O)C(C#N)C(=O)C1CCC1` (stereo not drawn) showed a melting point of 81 to 83 °C. `Nc1n[nH]c2c1CCC2` showed a melting point of 116 to 120 °C. For `COc1cc2cc3c(Nc4ccc(Sc5nccn5C)c(Cl)c4)c(C#N)cnc3cc2cc1OCCCCl`, the melting point was over 300 °C. Molecule `COc1ccc(CCOc2cccc(-c3cccc(C(=O)O)c3)n2)cc1OC` has a melting point of 147 to 148 °C. With `COC(=O)C(O)(c1ccc(C(F)(F)F)cc1)c1ccc(C(F)(F)F)cc1` the melting point was 68 °C. Molecule `Cc1c(-c2ccc(OC(F)(F)F)cc2)[nH]c2ccc(OCc3ccccc3)cc12` has a melting point of 127 to 128 °C. `CCn1nc(C(F)(F)F)c(CS(=O)(=O)C2=NOC(C)(C)C2)c1OC(F)F` gave a melting point of 98 to 100 °C. For `Cn1c(=O)c2c(ncn2Cc2noc(CCO)n2)n(C)c1=O`, the melting point was 145 °C. Work on `Cc1cccc2c1n(CCS(C)(=O)=O)c(=O)n2C(=O)N[C@H](C(=O)N(C)C)C(C)(C)C` yielded a melting point of 191 °C. `CN(C(=O)c1ccc2nonc2c1)[C@H]1CC[C@H](N=[N+]=[N-])CC1` showed a melting point of 149 to 150 °C. Work on `CN1CCN(c2ccc(Nc3nc(N)c(C(=O)c4c(Cl)cc(Br)c(N)c4Cl)s3)cc2)CC1` yielded a melting point of 180 to 182 °C. `O=C(O)COc1ccc(-c2ccccc2OC2OC(CO)C(O)C(O)C2O)cc1` (stereo not drawn) gave a melting point of 145 to 146 °C. Work on `O=C(O)c1cc2cccc(I)c2s1` yielded a melting point of 268 to 270 °C. `CCc1noc(C2=C(C)NC(C)=C(C(=O)OCCOC)C2c2cc(Cl)cc(Cl)c2)n1` (stereo not drawn) showed a melting point of 201 to 202 °C. With `CCCc1c(N)c(C(C)=O)cc(C(C)=O)c1O` the melting point was 138 to 139 °C. With `CC(C)CC(NC(=O)OC(C)(C)C)C(=O)NCC(=O)NCC(=O)NC(C)C(=O)NCC(=O)NN` (stereo not drawn) (Boc-LGGAG-NHNH2; configuration not given here) the melting point was 174 to 176 °C. `CCCOc1c(OCc2ccccc2)cc([C@H]2CC[C@H](c3cc(OC)c(OC)c(OC)c3)O2)cc1S(=O)(=O)CCO` (relative stereo) gave a melting point of 112 to 113 °C. Work on `CC(C)C1=NCCSC1=NO` yielded a melting point of 167 to 169 °C. With `Cc1noc(NS(=O)(=O)c2ccccc2-c2ccc(-c3ncco3)cc2CN2CC(C)(C)CC2=O)c1C` the melting point was 118 to 125 °C. Work on `CCOC(=O)C1=C(C)NC(C)=C(C(=O)OCC)C1c1ccccc1/C=C(\C)c1ccccc1` yielded a melting point of 141 to 142 °C. Work on `Cc1ccc(S(=O)(=O)OCC2CCC=CO2)cc1` (stereo not drawn) yielded a melting point of 45 to 46 °C. Molecule `CCc1[nH]n(C2CCCC2)c2nc(-c3cccc(OCC(=O)O)c3)nc(=O)c1-2` has a melting point of 299 to 300 °C. Molecule `Cc1cc2cn[nH]c2c(C(=O)NC(C)C)c1NC(=O)c1cc(Br)nn1-c1ncccc1Cl` has a melting point of 163 to 166 °C. With `CCCNCc1nc(-c2ncn3c2[C@@H]2CCN2C(=O)c2c(Cl)cccc2-3)no1` the melting point was 237 to 239 °C. For `O=C(Nc1cccc(O)c1)C(=O)N1CCC(Cc2ccccc2)CC1`, the melting point was 158 to 160 °C. Molecule `CCOc1ccc(C(=O)N(C)C)c2c1C(=O)N(Cn1nnn(-c3ccccc3)c1=S)S2(=O)=O` has a melting point of 172 to 173 °C. In the case of `O=C(c1ccccc1)N1CCN(CC(O)Cn2c3ccccc3c3ccccc32)CC1` (stereo not drawn), the melting point is reported as 153 °C. With `Nc1c(Nc2cccc(-c3ccncc3)n2)c(=O)c1=O` the melting point was over 340 °C. Work on `CC(C)c1ccc(-n2nc(C(C)(C)C)cc2NC(=O)c2cncc3cc(Oc4cc(N)ncn4)ccc23)cc1` yielded a melting point of 131 to 133 °C. For `COC(=O)c1cc(Cl)c(N)c(Cl)c1`, the melting point was 72 to 74 °C. Molecule `CSc1ccc(Nc2cc(-c3nnc(C(C)(C)OC(C)=O)o3)ccn2)cc1` has a melting point of 142 to 143 °C. With `CCc1cccc(CC)c1-n1cncc1C(N)=O` the melting point was 171 to 172 °C. Work on `O=C(O)CCCCc1cc2nc(Cl)ccc2n1S(=O)(=O)c1ccccc1` yielded a melting point of 113 °C. For `Cc1cnc(N2CCC(c3ccc(S(N)(=O)=O)cc3)CC2)n1C`, the melting point was 256 to 257 °C. Work on `CC(C)NC[C@H](O)COc1ccc(OCc2ccccc2)cc1` yielded a melting point of 93 to 95 °C. Work on `Cc1cc2c(c3ccc(=O)[nH]c13)OC(COS(C)(=O)=O)C2` (stereo not drawn) yielded a melting point of 200 to 203 °C. Work on `CC1(C)Oc2ccsc2C(NC(=O)c2cccnc2)C1O` (stereo not drawn) yielded a melting point of 248 to 249 °C. `CC(C)CCCC(C)C1CC(O)C2=C3C(O)CC4CC(OC(=O)c5ccccc5)CCC4(C)C3CCC21C` (stereo not drawn) gave a melting point of 178 to 179 °C. Molecule `Cc1ccc(C(O)(c2ccc(C)cc2)C2CCN(CCCC(O)c3ccc(C(C)(C)C(=O)O)cc3)CC2)cc1` (stereo not drawn) has a melting point of 208 to 215 °C. Work on `Oc1cc(OCCCCCCCCCCOc2ccc(C(=S)c3ccc(-c4ccccc4)cc3)c(O)c2)ccc1C(=S)c1ccc(-c2ccccc2)cc1` yielded a melting point of 125 to 127 °C. `Cc1nn2c(C(F)(F)F)cc(-c3ccc(Cl)cc3)nc2c1C#N` showed a melting point of 238 °C. Work on `COC(=O)C1=C(C)Nc2nccn2C1c1cccc([N+](=O)[O-])c1` (stereo not drawn) yielded a melting point of 263 to 264 °C. `O=C(NCc1ccc(OCCN2CCCC2)cc1)c1ccc2c(c1)OCO2` gave a melting point of 93.5 to 94.5 °C. `NCc1c(Cc2ccccc2)nc2ccc(OCC(N)=O)cc2c1-c1ccccc1` showed a melting point of 180 to 182 °C. In the case of `O=C(O)Cc1cccc2c(-c3ccc(Cl)cc3)noc12`, the melting point is reported as 110 to 125 °C. Molecule `COc1cc(N)c(Cl)cc1C(=O)NCC1CCN(CCCCOc2ccccc2)CC1` has a melting point of 71 to 73 °C. In the case of `CNC(=O)[C@H](O)C(C)(C)C`, the melting point is reported as 60 to 62 °C. `N=C(N)NCCc1ccc(OCCC(c2ccc(Cl)cc2)(c2ccc(Cl)cc2)c2ccc(Cl)cc2)cc1` showed a melting point of 146 to 150 °C. Molecule `COc1ccc2c(=O)[nH]c(-c3ccc(OCCNC(C)C)c(-c4ccc(S(C)(=O)=O)cc4)n3)nc2c1` has a melting point of 204 to 205 °C. `COc1ccc(CCN2CCC(n3ccc4ccc(CNC(C)=O)cc43)CC2)cc1` showed a melting point of 101 to 102 °C. Work on `COC(=O)n1c(Br)c(Br)c(C#N)c1Br` yielded a melting point of 120 to 122 °C. `O=c1[nH]c2ncc(-c3ccc(O)cc3)nc2n1CC1CCOC1` (stereo not drawn) gave a melting point of 256 to 258 °C.
